From patent publication US7279321B2, “Methods for increasing the resistance of a host cell to aromatic carboxylic acids” (priority 2003, dated 2007)
In brackets after ≈: the same amount, converted by molar mass.

Tests used:
E. coli MG1655 (yhcP+) = test: microbe, parasite or virus in culture; type: cell-based
Protocol: (§1) Additional compounds were tested for growth inhibition of E. coli MG1655 (yhcP^+) and DPD2444 (yhcP^−) in Vogel-Bonner medium with glucose as the carbon source and with 0.01% tetrazolium violet added as an indicator of viability. A series of two-fold dilutions of each chemical was made to the wells of a clear 96-well microplate in 50 μl volume. To these wells was added 50 μl of an overnight culture in Vogel Bonner medium with glucose as a carbon source of either MG1655 or DPD2444 that had been previously diluted 500-fold into fresh medium. The plates were incubated at 37° C. without shaking for 16 to 18 hours. The purple color in each well was visually scored. A score of 4+ indicated full purple color equivalent to a no chemical control well. Scores of 3+, 2+, or 1+ indicated decreasing amounts of purple color. A score of − indicated the complete absence of color. The MIC was defined as the lowest tested concentration that gave complete absence of color. The rank of difference between strains was defined as the score of pigment color for E. coli MG1655 in wells containing the concentration of a given chemical at the MIC for DPD24444. When MG1655 had no color, the score was 0. When MG 1655 was scored at 1+, the score was 1, when scored at 2+, the score was 2, etc.

E. coli DPD2444 (yhcP−) = test: microbe, parasite or virus in culture; type: cell-based
Protocol: as §1

[1] = system: E. coli strain DPD3316 (DPD2433 yhcS− with pTrcHis2TOPO®/lacZ control); type: cell-based; settings: sodium salt of pHBA 80 μmoles/disk
Description: (§2) Plasmids pDEW668, pDEW673, pDEW675, and a control plasmid, pTrcHis2TOPO®/lacZ (Invitrogen), were moved by transformation to E. coli strain DPD2433, selecting for Ampicillin resistance, to generate strains DPD3317, DPD2455, DPD2457, and DPD3316, respectively.

[2] = system: E. coli strain DPD3317 (DPD2433 yhcS− with pDEW668 yhcRQP); type: cell-based; settings: sodium salt of pHBA 80 μmoles/disk
Description: as §2

[3] = system: E. coli strain DPD2457 (DPD2433 yhcS− with pDEW675 yhcRQ); type: cell-based; settings: sodium salt of pHBA 80 μmoles/disk
Description: as §2

[4] = system: E. coli strain DPD2455 (DPD2433 yhcS− with pDEW673 yhcQP); type: cell-based; settings: sodium salt of pHBA 80 μmoles/disk
Description: as §2

[5] = system: yhcRQP-luxCDABE gene fusion in strain DPD2437 (yhcS−); test: Bioluminescence response of yhcRQP-luxCDABE gene fusion; type: cell-based, E. coli; settings: LB pH 7.0, sodium salt
Description: (§3) Plasmid pDEW655 was constructed by ligating an E. coli chromosomal segment between nucleotides 3385829 and 3386761 according to the E. coli genomic sequence, which contains the promoter region of the putative yhcRQP operon and the entire yhcR gene and the 5′ end of the yhcQ gene, to the luxCDABE genes parental plasmid, pDEW201 (Gonye et al. U.S. Patent Application Publication 20030219736). Thus, this gene fusion will report on expression of the yhcQ gene and accordingly any other genes cotranscribed with it. Plasmid pDEW655 was moved to E. coli strains MG1655 and DPD2433 by transformation, selecting for Ampicillin resistance to generate strains DPD2436 and DPD2437, respectively. The bioluminescent response of these two strains to pHBA was tested.

[6] = system: yhcRQP-luxCDABE gene fusion in strain DPD2436 (yhcS+); test: as above; type: cell-based, E. coli; settings: LB pH 7.0, sodium salt
Description: as §3

[7] = system: E. coli strain DPD2467 (DPD2433 yhcS− with pDEW659 yhcP); test: pHBA zone of growth inhibition, plasmid-carrying strains (Table 9); type: cell-based
Description: as §2
(§4) The YhcP-Left primer was designed to contain a HindIII site and the YhcP-Right primer was designed to contain an EcoRI site for directional cloning of the resultant PCR product. […] The product of the PCR reaction was digested with restriction enzymes EcoRI and HindIII. The restriction digestion also contained pKK223-3 at an approximate molar ratio of 2:1 (insert:vector). Following incubation at 37° C. for 1.5 hours, the enzymes were inactivated by incubation at 65° C. for 20 minutes. The enzymes were subsequently removed by use a Qiaquick PCR purification kit (Qiagen) according to the vendor's instructions. The purified restriction products were ligated using T4 DNA ligase at 16° C. overnight. Following ligation, PstI and SmaI digestions were used to linearize the vector without insert DNA. The DNA from this selection digestion was used for transformation of E. coli strain JM105 (Amersham Pharmacia Biotech Inc., Piscataway, N.J.) using selection for Ampicillin resistance. Plasmid DNA from individual transformants was digested with EcoRI and HindIII. […] This plasmid and others were placed in various host strains by transformation and selection for Ampicillin resistance.

[8] = system: E. coli strain DPD2464 (DPD2444 yhcP− with pDEW673 yhcQP); test: as above; type: cell-based
Description: as §2, §4

[9] = system: E. coli strain DPD2462 (DPD2444 yhcP− with pKK223-3 control plasmid); test: as above; type: cell-based
Description: as §2, §4

[10] = system: E. coli strain DPD2444 (yhcP::TN<Kan>); test: MIC, 2-fold dilutions, Vogel-Bonner medium with 0.4% glucose; type: cell-based; settings: Escherichia coli, read-out: MIC for pHBA
Description: The yhcP::TN<Kan> was introduced into E. coli strain MG1655 (obtained from Prof. Douglas Berg, Washington University School of Medicine, St. Louis, […].) by P1clr100 Cm mediated transduction to kanamycin resistance using phage lysates of E. coli strain DPD2443. One of the resultant kanamycin resistant transductants was named DPD2444.

[11] = system: yhcP gene (co-transcribed with yhcQ and yhcR); test: expression of yhcP upon treatment of E. coli cells with aromatic carboxylic acids; type: cell-based
[12] = Vogel-Bonner 0.4% glucose, average of two experiments

With O=C(O)c1ccc(O)cc1 [pHBA, para-hydroxybenzoic acid] the MIC (E. coli MG1655 (yhcP+); Escherichia coli, MG1655, read-out: MIC, MG1655 (yhcP+)) was 100 mM (≈ 13800 µg/mL), the “Rank Diff” value (E. coli MG1655 (yhcP+); score of pigment color for MG1655 at the MIC for DPD2444 (0 = no color, 4 = full purple color)) was 4 and the MIC (E. coli DPD2444 (yhcP−); Escherichia coli, read-out: MIC, DPD2444 (yhcP−)) was 12.5 mM (≈ 1730 µg/mL). The “defined as substrate of the YhcP efflux pump by this genetic test” value (E. coli DPD2444 (yhcP−); MIC difference at least 2-fold and rank at least 2) was “substrates of the YhcP efflux pump”, the “clarity of pHBA zone of growth inhibition” value [1] was “clear” and the “pHBA zone of growth inhibition, mm diameter” value [1, 12] was 23.5 mm. The “clarity of pHBA zone of growth inhibition” value [2] was “turbid”, the “pHBA zone of growth inhibition, mm diameter” value [2, 12] was 9.8 mm and the “clarity of pHBA zone of growth inhibition” value [3] was “slightly turbid”. For the same compound, the “pHBA zone of growth inhibition, mm diameter” value [3, 12] was 17.0 mm, the “clarity of pHBA zone of growth inhibition” value [4] was “turbid” and the “pHBA zone of growth inhibition, mm diameter” value [4, 12] was 9.5 mm. The RLU ([5]; [pHBA] 1.6, thirty minutes) was 1.02 RLU, the RLU ([5]; [pHBA] 3.1, thirty minutes) was 1.16 RLU and the RLU ([5]; [pHBA] 6.2, thirty minutes) was 1.42 RLU. For the same compound, the RLU ([5]; [pHBA] 12.5, thirty minutes) was 1.82 RLU, the RLU ([5]; [pHBA] 25, thirty minutes) was 1.59 RLU and the RLU ([5]; [pHBA] 50, thirty minutes) was 0.614 RLU. The RLU ([5]; [pHBA] 100, thirty minutes) was 0.045 RLU, the RLU ([6]; [pHBA] 1.6, thirty minutes) was 6.72 RLU and the RLU ([6]; [pHBA] 3.1, thirty minutes) was 10.2 RLU. For the same compound, the RLU ([6]; [pHBA] 6.2, thirty minutes) was 16.2 RLU, the RLU ([6]; [pHBA] 12.5, thirty minutes) was 30.8 RLU and the RLU ([6]; [pHBA] 25, thirty minutes) was 66.6 RLU. The RLU ([6]; [pHBA] 50, thirty minutes) was 91.7 RLU, the RLU ([6]; [pHBA] 100, thirty minutes) was 0.437 RLU and the “clarity of pHBA zone of growth inhibition” value [7] was “clear”. For the same compound, the “pHBA zone of growth inhibition, mm diameter” value ([7]; tested as for Table 8) was 18.8 mm, the “clarity of pHBA zone of growth inhibition” value [8] was “turbid” and the “pHBA zone of growth inhibition, mm diameter” value ([8]; tested as for Table 8) was 9.8 mm. For the same compound, the “clarity of pHBA zone of growth inhibition” value [9] was “clear”, the “pHBA zone of growth inhibition, mm diameter” value ([9]; tested as for Table 8) was 22.8 mm and the MIC [10] was 25 mM (≈ 3450 µg/mL). For the same compound, the “expression of the yhcP gene upon treatment of E. coli cells” value [11] was “highly upregulated”.
